From patent US20120115845A1, “THERAPEUTIC AGENTS” (priority 2007, published 2012)

Legend:
human GHS receptor [1] = target: T1, human GHS receptor (Homo sapiens, UniProt Q92847); experiment: h bind IC50 (binding assay, Table 1); conditions: human receptor; Table 1
human GHS receptor [2] = target: T1, human GHS receptor; experiment: Ghrelin IP1 agonist assay (IP1 HTRF); assay type: cell-based; parameters: expressed in transfected cells; host or cells: HEK293s; conditions: for Emax: 2 h, agonist effect as % maximal effect of GHRP-6 (5 μM), read-out: h IP1 ag %; for EC50: HEK293s cells stably expressing human GHS receptor, 2 hours at 37° C., read-out: h IP1 ag EC50
Method in brief: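 Cells: HEK293s stably expressing human GHS receptor, in stimulation buffer containing 0.02% fatty acid free BSA.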

T1 sequence (Q92847 whole entry): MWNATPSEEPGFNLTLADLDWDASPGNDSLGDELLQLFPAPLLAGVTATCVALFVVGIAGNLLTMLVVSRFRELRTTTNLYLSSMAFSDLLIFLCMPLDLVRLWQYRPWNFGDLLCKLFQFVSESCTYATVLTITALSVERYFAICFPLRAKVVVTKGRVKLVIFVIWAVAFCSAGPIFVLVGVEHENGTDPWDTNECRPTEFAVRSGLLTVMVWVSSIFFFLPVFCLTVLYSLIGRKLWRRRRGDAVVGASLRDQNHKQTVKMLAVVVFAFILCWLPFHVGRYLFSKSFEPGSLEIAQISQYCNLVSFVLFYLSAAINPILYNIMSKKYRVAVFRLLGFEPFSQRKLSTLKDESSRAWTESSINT

Work on `CS(=O)(=O)c1ccc2nc(NC(=O)NC(=O)c3cc(CN4CCCC4)ccc3Cl)sc2c1` [Example 62, 2-Chloro-5-pyrrolidin-1-ylmethyl-N-(6-(methylsulfonyl)benzothiazol-2-ylcarbamoyl)benzamide] yielded an IC50 (human GHS receptor [1]) of 1740 nM, an Emax (human GHS receptor [2]) of 9.06% and an EC50 (human GHS receptor [2]) of at least 25000 nM.

Work on `CN(C)CCOc1ccc(Cl)c(C(=O)NC(=O)Nc2nc3ccc(S(C)(=O)=O)cc3s2)c1` [Example 63, 2-Chloro-5-(2-(dimethylamino)ethoxy)-N-(6-(methylsulfonyl)benzothiazol-2-ylcarbamoyl)benzamide] yielded an IC50 (human GHS receptor [1]) of 2770 nM, an Emax (human GHS receptor [2]) of 31.8% and an EC50 (human GHS receptor [2]) of 61.4 nM.

`CS(=O)(=O)c1ccc2nc(NC(=O)NC(=O)c3cc(Cl)ccc3Cl)sc2c1` [Example 64, 2,5-Dichloro-N-[(6-methylsulfonylbenzothiazol-2-yl)carbamoyl]benzamide] showed an IC50 (human GHS receptor [1]) of 139 nM, an Emax (human GHS receptor [2]) of 8.74% and an EC50 (human GHS receptor [2]) of 19 nM.

Work on `Cc1ccc(Cl)c(C(=O)NC(=O)Nc2nc3ccc(S(C)(=O)=O)cc3s2)c1` [Example 65, 2-Chloro-5-methyl-N-(6-(methylsulfonyl)benzothiazol-2-ylcarbamoyl)benzamide] yielded an IC50 (human GHS receptor [1]) of 272 nM, an Emax (human GHS receptor [2]) of 8.23% and an EC50 (human GHS receptor [2]) of 81 nM.

`CS(=O)(=O)c1ccc2nc(NC(=O)NC(=O)c3cc(-n4cccc4)ccc3Cl)sc2c1` [Example 66, 2-Chloro-N-[(6-methylsulfonylbenzothiazol-2-yl)carbamoyl]-5-pyrrol-1-yl-benzamide] showed an IC50 (human GHS receptor [1]) of 23.1 nM, an Emax (human GHS receptor [2]) of 0% and an EC50 (human GHS receptor [2]) of at least 25000 nM.

Compound `CS(=O)(=O)c1ccc2nc(NC(=O)NC(=O)c3cc(-n4cncn4)ccc3Cl)sc2c1` [Example 67, 2-Chloro-N-(6-(methylsulfonyl)benzothiazol-2-ylcarbamoyl)-5-(1H-1,2,4-triazol-1-yl)benzamide] has an IC50 (human GHS receptor [1]) of 536 nM, an Emax (human GHS receptor [2]) of 0% and an EC50 (human GHS receptor [2]) of over 20000 nM.

`CS(=O)(=O)c1ccc2nc(NC(=O)NC(=O)c3cc(-c4cncs4)ccc3Cl)sc2c1` [Example 68, 2-chloro-N-(6-(methylsulfonyl)benzothiazol-2-ylcarbamoyl)-5-(thiazol-5-yl)benzamide] showed an IC50 (human GHS receptor [1]) of 44.1 nM, an Emax (human GHS receptor [2]) of 0% and an EC50 (human GHS receptor [2]) of over 25000 nM.

Compound `CS(=O)(=O)c1ccc2nc(NC(=O)NC(=O)c3cc(-n4ccnc4)ccc3Cl)sc2c1` [Example 69, 2-Chloro-5-(1H-imidazol-1-yl)-N-(6-(methylsulfonyl)benzothiazol-2-ylcarbamoyl)benzamide] has an IC50 (human GHS receptor [1]) of 37.4 nM, an Emax (human GHS receptor [2]) of 14.1% and an EC50 (human GHS receptor [2]) of 3010 nM.

With `CS(=O)(=O)c1ccc2nc(NC(=O)NC(=O)c3cc([N+](=O)[O-])ccc3Cl)sc2c1` [Example 70, 2-Chloro-N-(6-(methylsulfonyl)benzothiazol-2-ylcarbamoyl)-5-nitrobenzamide] the IC50 (human GHS receptor [1]) was 141 nM, the Emax (human GHS receptor [2]) was 0.5% and the EC50 (human GHS receptor [2]) was 389 nM.

`CCN(CC)CCCS(=O)(=O)c1ccc2nc(NC(=O)NC(=O)c3cc(-n4cccc4)ccc3Cl)sc2c1` [Example 71, 2-Chloro-N-[[6-(3-diethylaminopropylsulfonyl)benzothiazol-2-yl]carbamoyl]-5-pyrrol-1-yl-benzamide] gave an IC50 (human GHS receptor [1]) of 0.4 nM, an Emax (human GHS receptor [2]) of 0.0469% and an EC50 (human GHS receptor [2]) of at least 25000 nM.

`O=C(NC(=O)c1cc(-n2cccc2)ccc1Cl)Nc1nc2ccc(S(=O)(=O)CCCNCC3CC3)cc2s1` [Example 72, 2-Chloro-N-[[6-[3-(cyclopropylmethylamino)propylsulfonyl]benzothiazol-2-yl]carbamoyl]-5-pyrrol-1-yl-benzamide] was tested, and the IC50 (human GHS receptor [1]) was 0.3 nM, the Emax (human GHS receptor [2]) was 6.6% and the EC50 (human GHS receptor [2]) was 6070 nM.

Work on `O=C(NC(=O)c1cc(-n2cccc2)ccc1Cl)Nc1nc2ccc(S(=O)(=O)CCCN3CCNCC3)cc2s1` [Example 73, 2-Chloro-N-[[6-(3-piperazin-1-ylpropylsulfonyl)benzothiazol-2-yl]carbamoyl]-5-pyrrol-1-yl-benzamide] yielded an IC50 (human GHS receptor [1]) of 1.3 nM, an Emax (human GHS receptor [2]) of 2.25% and an EC50 (human GHS receptor [2]) of at least 25000 nM.

With `O=C(NC(=O)c1cc(-n2cccc2)ccc1Cl)Nc1nc2ccc(S(=O)(=O)[C@H]3CCNC3)cc2s1` [Example 77, 2-Chloro-N-[[6-[(3S)-pyrrolidin-3-yl]sulfonylbenzothiazol-2-yl]carbamoyl]-5-pyrrol-1-yl-benzamide] the IC50 (human GHS receptor [1]) was 1.7 nM, the Emax (human GHS receptor [2]) was 0.911% and the EC50 (human GHS receptor [2]) was at least 25000 nM.

For `O=C(NC(=O)c1cc(-n2cccc2)ccc1Cl)Nc1nc2ccc(S(=O)(=O)[C@@H]3CCNC3)cc2s1` [Example 78, 2-Chloro-N-[[6-[(3R)-pyrrolidin-3-yl]sulfonylbenzothiazol-2-yl]carbamoyl]-5-pyrrol-1-yl-benzamide], the IC50 (human GHS receptor [1]) was 0.8 nM, the Emax (human GHS receptor [2]) was 0.81% and the EC50 (human GHS receptor [2]) was 4220 nM.

`O=C(NC(=O)c1cc(-n2cccc2)ccc1Cl)Nc1nc2ccc(S(=O)(=O)CCN3CCNCC3)cc2s1` [Example 79, 2-Chloro-N-[[6-(2-piperazin-1-ylethylsulfonyl)benzothiazol-2-yl]carbamoyl]-5-pyrrol-1-yl-benzamide] gave an IC50 (human GHS receptor [1]) of 0.6 nM, an Emax (human GHS receptor [2]) of 1.95% and an EC50 (human GHS receptor [2]) of at least 25000 nM.

`COCCNCCS(=O)(=O)c1ccc2nc(NC(=O)NC(=O)c3cc(-n4cccc4)ccc3Cl)sc2c1` [Example 80, 2-Chloro-N-[[6-[2-(2-methoxyethylamino)ethylsulfonyl]benzothiazol-2-yl]carbamoyl]-5-pyrrol-1-yl-benzamide] was tested, and the IC50 (human GHS receptor [1]) was 2.2 nM, the Emax (human GHS receptor [2]) was 9.77% and the EC50 (human GHS receptor [2]) was at least 25000 nM.

In the case of `CC(C)NCCS(=O)(=O)c1ccc2nc(NC(=O)NC(=O)c3cc(-n4cccc4)ccc3Br)sc2c1` [Example 83, 2-Bromo-N-(6-(2-(isopropylamino)ethylsulfonyl)benzothiazol-2-ylcarbamoyl)-5-(1H-pyrrol-1-yl)benzamide], the IC50 (human GHS receptor [1]) is reported as 1.3 nM, the Emax (human GHS receptor [2]) is reported as 0% and the EC50 (human GHS receptor [2]) is reported as at least 25000 nM.

In the case of `CN1CCN(CCCS(=O)(=O)c2ccc3nc(NC(=O)NC(=O)c4cc(-n5cccc5)ccc4Cl)sc3c2)CC1` [Example 85, 2-Chloro-N-(6-(3-(4-methylpiperazin-1-yl)propylsulfonyl)benzothiazol-2-ylcarbamoyl)-5-(1H-pyrrol-1-yl)benzamide], the IC50 (human GHS receptor [1]) is reported as 0.2 nM, the Emax (human GHS receptor [2]) is reported as 0.18% and the EC50 (human GHS receptor [2]) is reported as at least 25000 nM.

With `CN1CCN(CCCS(=O)(=O)c2ccc3nc(NC(=O)NC(=O)c4cc(-c5ccccn5)ccc4Cl)sc3c2)CC1` [Example 86, 2-Chloro-N-(6-(3-(4-methylpiperazin-1-yl)propylsulfonyl)benzothiazol-2-ylcarbamoyl)-5-(pyridin-2-yl)benzamide] the IC50 (human GHS receptor [1]) was 0.7 nM, the Emax (human GHS receptor [2]) was 0.64% and the EC50 (human GHS receptor [2]) was at least 25000 nM.

Work on `CN1CCN(CCCS(=O)(=O)c2ccc3nc(NC(=O)NC(=O)c4cc(N5CCCC5)ccc4Cl)sc3c2)CC1` [Example 87, 2-Chloro-N-(6-(3-(4-methylpiperazin-1-yl)propylsulfonyl)benzothiazol-2-ylcarbamoyl)-5-(pyrrolidin-1-yl)benzamide] yielded an IC50 (human GHS receptor [1]) of 0.2 nM, an Emax (human GHS receptor [2]) of 0.631% and an EC50 (human GHS receptor [2]) of 6560 nM.

For `CN1CCN(CCCS(=O)(=O)c2ccc3nc(NC(=O)NC(=O)c4cc(-n5cccn5)ccc4Cl)sc3c2)CC1` [Example 88, 2-Chloro-N-(6-(3-(4-methylpiperazin-1-yl)propylsulfonyl)benzothiazol-2-ylcarbamoyl)-5-(1H-pyrazol-1-yl)benzamide], the IC50 (human GHS receptor [1]) was 0.7 nM, the Emax (human GHS receptor [2]) was 4.42% and the EC50 (human GHS receptor [2]) was at least 25000 nM.

Work on `Cc1ccnn1-c1ccc(Cl)c(C(=O)NC(=O)Nc2nc3ccc(S(=O)(=O)CCCN4CCN(C)CC4)cc3s2)c1` [Example 90, 2-Chloro-5-(5-methyl-1H-pyrazol-1-yl)-N-(6-(3-(4-methylpiperazin-1-yl)propylsulfonyl)benzothiazol-2-ylcarbamoyl)benzamide] yielded an IC50 (human GHS receptor [1]) of 0.7 nM, an Emax (human GHS receptor [2]) of 0% and an EC50 (human GHS receptor [2]) of over 25000 nM.

Compound `Cc1ccn(-c2ccc(Cl)c(C(=O)NC(=O)Nc3nc4ccc(S(=O)(=O)CCCN5CCN(C)CC5)cc4s3)c2)n1` [Example 91, 2-Chloro-5-(3-methyl-1H-pyrazol-1-yl)-N-(6-(3-(4-methylpiperazin-1-yl)propylsulfonyl)benzothiazol-2-ylcarbamoyl)benzamide] has an IC50 (human GHS receptor [1]) of 0.5 nM, an Emax (human GHS receptor [2]) of 0.5% and an EC50 (human GHS receptor [2]) of 4820 nM.

`CN1CCN(CCCS(=O)(=O)c2ccc3nc(NC(=O)NC(=O)c4cc(OS(C)(=O)=O)ccc4Cl)sc3c2)CC1` [Example 92, 4-Chloro-3-(6-(3-(4-methylpiperazin-1-yl)propylsulfonyl)benzothiazol-2-ylcarbamoylcarbamoyl)phenyl methanesulfonate] was tested, and the IC50 (human GHS receptor [1]) was 10.1 nM, the Emax (human GHS receptor [2]) was 4.99% and the EC50 (human GHS receptor [2]) was over 4870 nM.

`CCOc1ccc(Cl)c(C(=O)NC(=O)Nc2nc3ccc(S(=O)(=O)CCCN4CCN(C)CC4)cc3s2)c1` [Example 93, 2-Chloro-5-ethoxy-N-(6-(3-(4-methylpiperazin-1-yl)propylsulfonyl)benzothiazol-2-ylcarbamoyl)benzamide] gave an IC50 (human GHS receptor [1]) of 1.7 nM, an Emax (human GHS receptor [2]) of 3.9% and an EC50 (human GHS receptor [2]) of 30.1 nM.

`CN1CCN(CCCS(=O)(=O)c2ccc3nc(NC(=O)NC(=O)c4cc(C5CC5)ccc4Cl)sc3c2)CC1` [Example 94, 2-Chloro-5-cyclopropyl-N-(6-(3-(4-methylpiperazin-1-yl)propylsulfonyl)benzothiazol-2-ylcarbamoyl)benzamide] showed an IC50 (human GHS receptor [1]) of 0.3 nM, an Emax (human GHS receptor [2]) of 18.1% and an EC50 (human GHS receptor [2]) of 7.24 nM.

In the case of `CN1CCN(CCCS(=O)(=O)c2ccc3nc(NC(=O)NC(=O)c4cc(-n5cncn5)ccc4Cl)sc3c2)CC1` [Example 95, 2-Chloro-N-(6-(3-(4-methylpiperazin-1-yl)propylsulfonyl)benzothiazol-2-ylcarbamoyl)-5-(1H-1,2,4-triazol-1-yl)benzamide], the IC50 (human GHS receptor [1]) is reported as 10.7 nM, the Emax (human GHS receptor [2]) is reported as 9.48% and the EC50 (human GHS receptor [2]) is reported as 1160 nM.

With `CN1CCN(CCCS(=O)(=O)c2ccc3nc(NC(=O)NC(=O)c4cc(-c5cncs5)ccc4Cl)sc3c2)CC1` [Example 96, 2-Chloro-N-(6-(3-(4-methylpiperazin-1-yl)propylsulfonyl)benzothiazol-2-ylcarbamoyl)-5-(thiazol-5-yl)benzamide] the IC50 (human GHS receptor [1]) was 2.9 nM, the Emax (human GHS receptor [2]) was 13.1% and the EC50 (human GHS receptor [2]) was 432 nM.
